Test results from patent US20210338654A1 (priority 2019, published 2021).
“And” between values parts separate entries of the source, which are not always exact repeats. Equal values may be shown once.

What was measured:
[1] = system: breakthrough migraine in patients treated with botulinum toxin (Botox); details: human, in vivo
[2] = system: migraine attack of moderate or severe intensity in adults; type: in vivo, human
[3] = system: breakthrough migraine in patient treated with fremanezumab; details: human, in vivo
[4] = system: breakthrough migraine in patients treated with erenumab-aooe; details: human, in vivo
patients with migraine = details: in vivo

CN(C)CCc1c[nH]c2ccc(C[C@H]3COC(=O)N3)cc12 [Zomig®, reference compound]
effect on migraines (patient history) [1]: would decrease in intensity but they would not attain freedom from pain within 24 hrs

N[C@@H]1c2cccnc2[C@H](OC(=O)N2CCC(n3c(=O)[nH]c4ncccc43)CC2)CC[C@H]1c1cccc(F)c1F [Rimegepant, [(5S,6S,9R)-5-amino-6-(2,3-difluorophenyl)-6,7,8,9-tetrahydro-5H-cyclohepta[b]pyridin-9-yl] 4-(2-oxo-3H-imidazo[4,5-b]pyridin-1-yl)piperidine-1-carboxylate]
adverse effects from treatment [1]: did not report any adverse effects
need for rescue medication [1]: did not require any rescue medications or additional doses of rimegepant
number of headache days (parent report) [1]: noticeable reduction in the number of headache days
relief from breakthrough migraine headache [1]: obtained relief from the migraine headache without the need to take other medications
resolution of Botox induced headache [1]: completely resolved within an hour
time to full resolution of headache [1]: ≤ 1 h
time to pain relief [1]: within a half an hour
N. Censored (no pain score of none by 495 minutes postdose, censored at 496 minutes) ([2]; N = 537): 139
Freedom from most bothersome symptom at two hours postdose, Common Risk ([2]; in vivo): 41.2%
Freedom from most bothersome symptom at two hours postdose, Free from MBS n/N ([2]; in vivo): 31/89 and 171/448 and 202/537
Freedom from most bothersome symptom at two hours postdose, Stratum Risk ([2]; in vivo): 40.3% and 41.4%
Pain freedom at two hours postdose, Common Risk ([2]; in vivo): 20.2%
Pain freedom at two hours postdose, No Pain n/N ([2]; in vivo): 14/89 and 91/448 and 105/537
Pain freedom at two hours postdose, Risk Difference Rimegepant vs Placebo ([2]; in vivo): 7.82 and 7.36 and 7.91
Pain freedom at two hours postdose, Stratum Risk ([2]; in vivo): 16.7% and 20.9%
migraine breakthroughs successfully treated [3]: three migraine breakthroughs that were successfully treated
Preference of Medication response [4]: Much better, I prefer this medication.
Satisfaction with Medication (SM) response [4]: Very satisfied.
acute treatment of breakthrough migraine, outcome [4]: effective
adverse events [4]: no adverse events
adverse events related to treatment [4]: no adverse events related to treatment
adverse events while receiving rimegepant alone (streptococcal pharyngitis, considered unrelated) [4]: 1
rating versus previous treatments [4]: much better
relief from breakthrough migraine headache [4]: obtained relief from the migraine headache without the need to take other medications
satisfaction with rimegepant at end-of-study visit [4]: very satisfied
incidence of serum ALT or AST >3×ULN (patients with migraine; human): 1.0%
Hy's Law cases (patients with migraine): no Hy's Law cases identified
liver cases assessed as probably related to study drug (patients with migraine): no liver cases assessed as probably related to study drug
liver safety signal (patients with migraine): no liver safety signal detected to date
mean reduction in headaches/month (patients with migraine): 4 days
patients with at least 30% reduction in monthly number of headache days (patients with migraine): Approximately 40%

B1: erenumab (antibody, chains of the INN, looked up, V domains shown)
VH: QVQLVESGGGVVQPGRSLRLSCAASGFTFSSFGMHWVRQAPGKGLEWVAVISFDGSIKYSVDSVKGRFTISRDNSKNTLFLQMNSLRAEDTAVYYCARDRLNYYDSSGYYHYKYYGMAVWGQGTTVTVSS
VL: QSVLTQPPSVSAAPGQKVTISCSGSSSNIGNNYVSWYQQLPGTAPKLLIYDNNKRPSGIPDRFSGSKSGTSTTLGITGLQTGDEADYYCGTWDSRLSAVVFGGGTKLTVL
decline in monthly migraine days (MMDs) [4]: 46%
monthly migraine days of any pain intensity after starting erenumab [4]: 7 MMDs
